This passage reports IC50 results from ChEMBL document CHEMBL2163330, “Dynamic modeling of human 5-lipoxygenase-inhibitor interactions helps to discover novel inhibitors” (J Med Chem, 2012).

One assay addresses T1, Prostaglandin E synthase (Homo sapiens, UniProt O14684).
T1 sequence (O14684 whole entry): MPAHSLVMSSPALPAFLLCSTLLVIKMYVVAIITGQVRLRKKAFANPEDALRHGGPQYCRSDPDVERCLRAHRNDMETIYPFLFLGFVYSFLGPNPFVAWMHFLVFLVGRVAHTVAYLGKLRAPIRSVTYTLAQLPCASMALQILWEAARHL
Kind of assay: Inhibition of mPGES1 in LPS-stimulated human whole blood assessed as reduction in PGE2 production incubated for 24 hrs at 37 degC by enzyme immunoassay.

Assay [1] deals with T2, Polyunsaturated fatty acid 5-lipoxygenase (Rattus norvegicus, UniProt P12527).
T2 sequence (P12527 whole entry): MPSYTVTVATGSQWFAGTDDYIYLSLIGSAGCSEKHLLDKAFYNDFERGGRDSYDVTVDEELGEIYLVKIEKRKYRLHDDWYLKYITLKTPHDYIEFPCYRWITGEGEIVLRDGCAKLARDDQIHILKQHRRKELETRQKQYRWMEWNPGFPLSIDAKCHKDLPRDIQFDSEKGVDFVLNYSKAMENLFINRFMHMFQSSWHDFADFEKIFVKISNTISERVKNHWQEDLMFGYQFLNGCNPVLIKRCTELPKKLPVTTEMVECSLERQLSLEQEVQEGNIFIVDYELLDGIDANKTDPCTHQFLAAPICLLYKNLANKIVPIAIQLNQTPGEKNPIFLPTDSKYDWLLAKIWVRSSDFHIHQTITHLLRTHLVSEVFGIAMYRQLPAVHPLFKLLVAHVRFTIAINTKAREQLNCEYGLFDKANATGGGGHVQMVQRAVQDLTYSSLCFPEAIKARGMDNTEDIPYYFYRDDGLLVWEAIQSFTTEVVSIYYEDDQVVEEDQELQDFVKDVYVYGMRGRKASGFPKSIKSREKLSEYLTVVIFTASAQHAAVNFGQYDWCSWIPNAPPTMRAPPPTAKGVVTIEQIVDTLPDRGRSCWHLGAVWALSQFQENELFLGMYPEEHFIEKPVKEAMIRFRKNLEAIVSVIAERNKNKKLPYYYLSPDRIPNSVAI
Kind of assay: Inhibition of 5-LOX in rat RBL1 cells assessed as reduction in LTB4 production. The assay is classed as cell-based, RBL-1.

As for `CC1(C)Cc2c(-c3ccccc3)c(-c3ccc(Cl)cc3)c(CC(=O)O)n2C1` [LICOFELONE], the IC50 at Prostaglandin E synthase stood at 3.9 µM; in assay [1] it was 3.6 µM.

What is called IC50 is the concentration that gives 50% inhibition.
